The text below walks through data of patent US10835532B2, “Muscarinic agonists as cognitive enhancers” (The University of Toledo, priority 2008, dated 2020).

One series concerns the target T1, M1 receptors (Homo sapiens, UniProt P11229).
T1 construct: expressed in transfected cells; host or cells: A9 L cells
T1 sequence (P11229 1-460): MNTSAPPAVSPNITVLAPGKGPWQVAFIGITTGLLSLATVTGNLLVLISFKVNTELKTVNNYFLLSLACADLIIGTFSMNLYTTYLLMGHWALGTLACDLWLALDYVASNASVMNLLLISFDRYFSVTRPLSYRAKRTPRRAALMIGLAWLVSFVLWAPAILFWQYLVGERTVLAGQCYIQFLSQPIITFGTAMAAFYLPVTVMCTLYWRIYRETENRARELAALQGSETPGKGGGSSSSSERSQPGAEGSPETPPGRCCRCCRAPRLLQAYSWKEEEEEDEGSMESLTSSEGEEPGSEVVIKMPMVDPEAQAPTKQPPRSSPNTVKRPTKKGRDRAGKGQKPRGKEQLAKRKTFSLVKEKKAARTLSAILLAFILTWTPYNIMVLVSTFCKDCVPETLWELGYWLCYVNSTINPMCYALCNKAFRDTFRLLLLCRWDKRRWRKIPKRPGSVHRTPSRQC
The series is described as follows: PI metabolism in A9 L cells expressing M1 receptors. It counts as cell-based. The conditions noted are these: M1 receptors expressed in A9 L cells. Here is the method:
(§1) The observed functional selectivity of CDD-0102A is unique among compounds purported to be selective M1 agonists. […] The lack of selectivity likely contributes to the high incidence of adverse effects observed when the compounds are administered to humans. To assess selectivity for muscarinic receptors, the ability of CDD-0102A to activate responses was compared with the nonselective, full agonist carbachol at each muscarinic receptor subtype. In cultured cell lines expressing individual muscarinic receptor subtypes, phosphoinositide (PI) metabolism studies assessed activity at M1, M3 and M5 receptors, while measures of cAMP levels examined M2 and M4 receptor activity. […] CDD-0102 was not active when M5 receptors were expressed at low levels in A9 L cells. […] Thus, CDD-0102 is a functionally-selective M1 agonist with weaker activity at M5 receptors, very weak activity at M3 receptor and no activity at M2 or M4 receptors.

In another series the target is T2, M3 receptors (Homo sapiens, UniProt P20309).
T2 construct: expressed in transfected cells; host or cells: A9 L cells
The series is described as follows: PI metabolism in A9 L cells expressing M3 receptors. The class given is cell-based. The conditions noted are these: M3 receptors expressed in A9 L cells. Here is the method:
as §1

The target of a further series is T3, M5 receptors (Homo sapiens, UniProt P08912).
T3 construct: expressed in transfected cells; host or cells: A9 L cells
T3 sequence (P08912 1-532): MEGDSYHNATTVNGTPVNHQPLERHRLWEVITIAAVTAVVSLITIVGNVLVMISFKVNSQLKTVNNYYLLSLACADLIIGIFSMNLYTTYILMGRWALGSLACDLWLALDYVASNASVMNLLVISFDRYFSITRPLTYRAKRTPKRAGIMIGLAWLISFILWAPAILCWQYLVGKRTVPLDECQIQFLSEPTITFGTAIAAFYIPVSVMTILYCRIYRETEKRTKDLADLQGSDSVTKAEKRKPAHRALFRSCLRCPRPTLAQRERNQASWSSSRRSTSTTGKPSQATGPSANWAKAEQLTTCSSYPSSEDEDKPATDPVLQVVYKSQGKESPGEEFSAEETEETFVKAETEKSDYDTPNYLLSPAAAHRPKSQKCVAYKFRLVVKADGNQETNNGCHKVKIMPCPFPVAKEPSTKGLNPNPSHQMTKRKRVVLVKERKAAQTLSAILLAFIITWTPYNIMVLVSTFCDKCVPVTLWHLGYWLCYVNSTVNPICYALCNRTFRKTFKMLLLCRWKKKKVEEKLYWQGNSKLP
The series is described as follows: PI metabolism in A9 L cells expressing M5 receptors. The class given is cell-based. Here is the method: as §1

A further series addresses T4, M2 receptors (Homo sapiens, UniProt P08172).
T4 construct: expressed in transfected cells; host or cells: A9 L cells
T4 sequence (P08172 1-466): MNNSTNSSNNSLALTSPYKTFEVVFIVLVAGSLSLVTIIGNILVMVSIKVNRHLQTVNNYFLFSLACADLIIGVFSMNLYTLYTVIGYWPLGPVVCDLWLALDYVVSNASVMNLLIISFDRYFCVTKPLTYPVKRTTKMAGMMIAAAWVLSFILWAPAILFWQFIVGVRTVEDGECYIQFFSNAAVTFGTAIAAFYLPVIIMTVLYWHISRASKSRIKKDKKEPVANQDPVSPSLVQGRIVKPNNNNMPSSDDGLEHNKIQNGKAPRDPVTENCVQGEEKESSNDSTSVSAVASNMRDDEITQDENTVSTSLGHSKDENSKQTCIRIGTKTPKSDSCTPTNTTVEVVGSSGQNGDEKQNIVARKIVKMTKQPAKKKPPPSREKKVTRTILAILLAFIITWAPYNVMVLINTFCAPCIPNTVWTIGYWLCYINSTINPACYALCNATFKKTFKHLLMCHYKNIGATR
As to the kind of experiment: Inhibition of adenylyl cyclase activity (cAMP levels) in A9 L cells expressing M2 receptors. It counts as cell-based. How it is done:
as §1

The next series addresses T5, M4 receptors (Homo sapiens, UniProt P08173).
T5 construct: expressed in transfected cells; host or cells: CHO cells
T5 sequence (P08173 1-479): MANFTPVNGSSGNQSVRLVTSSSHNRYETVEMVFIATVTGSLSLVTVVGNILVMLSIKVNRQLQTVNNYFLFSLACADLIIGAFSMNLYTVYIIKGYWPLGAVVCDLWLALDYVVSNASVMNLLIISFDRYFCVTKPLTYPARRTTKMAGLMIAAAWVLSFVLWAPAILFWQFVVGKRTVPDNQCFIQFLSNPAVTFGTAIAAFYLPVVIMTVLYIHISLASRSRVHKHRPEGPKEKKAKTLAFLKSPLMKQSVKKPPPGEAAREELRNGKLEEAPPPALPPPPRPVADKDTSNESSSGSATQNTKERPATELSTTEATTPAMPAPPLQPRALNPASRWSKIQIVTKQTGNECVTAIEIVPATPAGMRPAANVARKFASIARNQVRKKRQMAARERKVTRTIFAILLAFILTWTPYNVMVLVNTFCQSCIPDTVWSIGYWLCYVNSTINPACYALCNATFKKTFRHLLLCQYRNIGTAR
The series is described as follows: Inhibition of adenylyl cyclase activity (cAMP levels) in CHO cells expressing M4 receptors. It counts as cell-based. How it is done: as §1
In general terms: cAMP levels reflect the balance of adenylyl cyclase and phosphodiesterase activity.

The subject of series [1] is rats with impaired cholinergic function. The conditions noted are these: Messer et al. 2002; cited from earlier work.
The conditions of series [2]: Messer et al. 2002; cited from earlier work.
Setting [3] is: read-out: EC50, stimulation of PI metabolism.

T2 sequence (P20309 whole entry): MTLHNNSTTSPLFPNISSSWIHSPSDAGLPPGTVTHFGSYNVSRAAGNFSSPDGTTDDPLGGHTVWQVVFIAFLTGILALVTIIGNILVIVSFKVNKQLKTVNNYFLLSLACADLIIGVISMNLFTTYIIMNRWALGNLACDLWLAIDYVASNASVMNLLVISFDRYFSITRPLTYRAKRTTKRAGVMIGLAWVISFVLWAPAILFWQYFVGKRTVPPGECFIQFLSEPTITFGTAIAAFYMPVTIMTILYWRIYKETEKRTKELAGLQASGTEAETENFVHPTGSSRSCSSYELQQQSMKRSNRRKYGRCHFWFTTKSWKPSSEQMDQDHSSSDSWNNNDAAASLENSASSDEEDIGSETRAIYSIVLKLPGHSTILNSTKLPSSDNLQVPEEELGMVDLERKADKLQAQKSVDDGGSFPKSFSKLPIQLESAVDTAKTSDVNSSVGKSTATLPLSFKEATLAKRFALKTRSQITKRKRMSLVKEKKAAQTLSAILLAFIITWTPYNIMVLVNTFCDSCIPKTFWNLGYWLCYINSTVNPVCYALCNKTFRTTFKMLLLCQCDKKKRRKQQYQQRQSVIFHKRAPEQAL

As for `CCc1noc(C2CN=CNC2)n1` (centres unmarked) [CDD-0102, 5-(3-ethyl-1,2,4-oxadiazol-5-yl)-1,4,5,6-tetrahydropyrimidine], the EC50 (commonly the concentration at which the effect is half-maximal) turned out to be 13 µM at M1 receptors (setting [3]); 10 µM at M3 receptors (setting [3]); 7.5 µM on M5 receptors (higher levels of M5 receptor expression in A9 L cells, read-out: EC50, stimulation of PI metabolism). The “PI metabolism, % of the carbachol response” value amounted to 46% on M1 receptors (relative to full agonist carbachol); 6.6% on M3 receptors (relative to carbachol); 28% on M5 receptors (higher levels of M5 receptor expression in A9 L cells, relative to carbachol). At M5 receptors (M5 receptors expressed at low levels in A9 L cells), the “Activity in PI metabolism” value is reported as “not active”. For the same molecule, the “Inhibition of adenylyl cyclase activity” value on M2 receptors and on M4 receptors was “inactive” in each case. Besides, the Memory deficits result in series [1] is reported as “reverses memory deficits”. For the same molecule, the “Side effect profile in vivo” value in series [2] was “low side effect profile”.
